Experimental data published in patent US5601821A, “Immunoactive peptides and antibodies and their use in anti-allergy treatment” (National Research Development Corporation, priority 1989, dated 1997).
Where no end group is shown, it is not given here.

Columns and labels:
[1] = system: rats experimentally sensitised to ovalbumin; test: Serum histamine after systemic allergen (ovalbumin) challenge of sensitised, peptide-immunised rats; type: in vivo, rat
Experimental: Groups of rats (male, Wistar) were hypersensitized by subcutaneous injection of a mixture (0.5 ml) of 0.5 ml chicken egg white (200 mg protein) and 2.5 ml Bordetella pertussis (40×10^10 organisms/ml)by a well-established experimental procedure (Jasani, B. and Stanworth, D. R., Journal of Immunologlcal Methods, 30, pp. 55-68 (1979)).
Repeat subcutaneous injections of the peptide-carrier protein conjugate mixed with incomplete Freund's adjuvant (IFA) were administered at days 14 and 21.
The effect of pre- or post-sensitisation immunisation with peptide (as described in section (b) above) on the state of hypersensitivity of rats which had been experimentally sensitised to ovalbumin (according to Example 5(a) above) was determined by the following procedure; similar investigations were carried out on non-immunised groups of rats as a control.
Animals from both the immunized and control groups were bled (from the tail vein) prior to systemic allergen challenge by intrapenal injection of ovalbumin (5 mg). The animals were sacrificed 10 min. later, whereupon a further sample of blood was obtained from their hearts. The histamine levels in serum from both pre-and post-allergen challenge blood samples were determined by a standard automated spectrofluorimetric procedure; the antibody profiles of the sera being determined by ELISA (according to Example 5(c) above).

[2] = system: rat peritoneal mast cells; design: dose or concentration left out as unconfirmed; settings: concentration range; cited from earlier work
[3] = A: immunised with peptide (PPD conjugate) before experimental sensitisation
[4] = B: immunised with peptide (PPD conjugate) after experimental sensitisation

Substance	Histamine release (mean allergen-induced serum histamine level) [1, 3]	Histamine release (mean allergen-induced serum histamine level) [1, 4]	effect on allergen-induced histamine release ([1]; pre- or post-immunisation of experimentally sensitised rats)	non-cytolytic histamine release from rat peritoneal mast cells [2]
F57: non-histamine releasing analogue of F49 in which the N-terminal lysine residue is replaced by glycine (GYNGSNQRFFIF-NH2)	606 ng/mL	1159 ng/mL	no significant effect	–
KTKGSGFF [octapeptide (sequence 497-504), human IgE Cε4 residues 497-504]	–	–	–	dose-dependent histamine release
KTKGSGFFVF [decapeptide (sequence 497-506), human IgE Cε4 residues 497-506]	–	–	–	dose-dependent histamine release
Lys-Tyr-Asn-Gly-Ser-Asn-Gln-Arg-Phe-Phe-Ile-Phe-NH2 (KYNGSNQRFFIF-NH2) [F49, histamine releasing rat ε-chain dodecapeptide]	0 ng/mL	50 ng/mL	–	–
RKTKGSGFF [nonapeptide (sequence 496-504), human IgE Cε4 residues 496-504]	–	–	–	dose-dependent histamine release
